Laboratory results reported in patent US4668677A, “4-phenylphthalazine derivatives, their preparation and their use as pharmaceuticals” (Mitsubishi Chemical Industries Limited, priority 1984, dated 1987).
Read-outs that look alike come from different tables or passages of the source.

What was measured:
rabbits = experiment: Anti-thrombotic activity: arachidonic acid-induced mortality in rabbits; format: in vivo, rabbit (male New Zealand White)
Description: Male ICR-JCL strain mice with an average body weight of about 25 g and male New Zealand White rabbits with an average body weight of about 3 Kg were used.
Where rabbits were used as experimental animals, a suspension of the test compound in a 1% tragacanth aqueous solution was orally administered to animals at 5 ml/Kg. Two hours after the administration, an arachidonic acid solution dissolved in a 0.1M potassium carbonate solution was injected into pinna vein at 1.4 mg/Kg.
Evaluation of activity was effected with mortality at the time when arachidonic acid given. If survived at the first administration of arachidonic acid, arachidonic acid was administered after 6 hours, 24 hours, 48 hours and 72 hours from the administration of the test compound, respectively, and mortality was determined in respective cases.

carotid artery = experiment: Action on blood flow volume in carotid artery; format: in vivo, rabbit (male New Zealand White)
Description: (§1) Male New Zealand White rabbits (body weight of 2.8 Kg to 3.5 Kg) were used and anesthetized with pentobarbital sodium. Blood flow volumes in the carotid artery and femoral artery were measured and recorded via a non-blood observing type of a probe for measuring blood flow volume. Also, blood pressure in femoral artery was simultaneously measured and recorded with measurement of blood flow.
(§2) The compound of this invention was dissolved in an aqueous solution containing 1% tartaric acid and 1% dimethylacetamide, while papaverine hydrochloride dissolved in 0.9% physiological saline. These test compounds were intravenously given through a residual polyethylene tube within femoral vein.

blood platelets = experiment: Activity to inhibit the aggregation of blood platelets (collagen, ex vivo after oral administration); format: in vivo, rat (male Wistar-ST strain); conditions: Rattus norvegicus, Platelet
Method in brief: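 Collagen-induced (7 to 10 μg/ml) platelet aggregation was measured ex vivo in PRP prepared from carotid blood collected 1 h after dosing. Groups of 8 male Wistar-ST rats were given 10 mg/Kg orally as a 1% tragacanth suspension. Inhibitory rate was derived relative to the tragacanth-only group.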

in vivo = conditions: rat, po, rats
femoral artery [1] = experiment: Action on blood pressure in femoral artery; format: in vivo, rabbit (male New Zealand White)
Description: as §1, §2

femoral artery [2] = experiment: Action on blood flow volume in femoral artery; format: in vivo, rabbit (male New Zealand White)
Description: as §1, §2

mice = experiment: Anti-thrombotic activity: arachidonic acid-induced mortality in mice; format: in vivo, mouse (male ICR-JCL strain); conditions: for Survival time of dead mice: arachidonic acid 100 mg/Kg i.v.; for Mortality: arachidonic acid 100 mg/Kg i.v. after 1 hour
Method in brief: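 Male ICR-JCL mice (about 25 g) dosed orally with compound suspended in 1% tragacanth (20 ml/Kg), then 1 h later challenged i.v. with arachidonic acid 100 mg/Kg in 0.1M sodium carbonate. Readouts: time from challenge to death and mortality.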

SMILES: CC(C)(C)CNc1nnc(-c2ccccc2)c2ccccc12 [Compound 1, 1-neopentylamino-4-phenylphthalazine]
- Mortality (number of rabbits) (rabbits; 10 mg/Kg oral, 2 hrs. after administration, of 4 rabbits): 1
- Mortality (number of rabbits) (rabbits; 10 mg/Kg oral, 6 hrs. after administration, of 4 rabbits): 2
- Mortality (number of rabbits) (rabbits; 10 mg/Kg oral, 24 hrs. after administration, of 4 rabbits): 1
- Mortality (number of rabbits) (rabbits; 30 mg/Kg oral, 24 hrs. after administration, of 8 (Compound 1) or 4 rabbits): 3
- Mortality (number of rabbits) (rabbits; 30 mg/Kg oral, 48 hrs. after administration, of 8 (Compound 1) or 4 rabbits): 1
- Mortality (number of rabbits) (rabbits; 30 mg/Kg oral, 72 hrs. after administration, of 8 rabbits): 4
- Blood flow volume in carotid artery, A: Before administration (carotid artery; 0.01 mg/Kg i.v.): 15.5 mL/min
- Blood flow volume in carotid artery, B: After administration (carotid artery; 0.01 mg/Kg i.v.): 21.9 mL/min
- Blood flow volume in carotid artery, C: Increase degree (carotid artery; 0.01 mg/Kg i.v.): 6.3 mL/min
- Blood flow volume in carotid artery, D: Increase rate (carotid artery; 0.01 mg/Kg i.v.): 40.8%
- Blood flow volume in carotid artery, A: Before administration (carotid artery; 0.05 mg/Kg i.v.): 14.5 mL/min
- Blood flow volume in carotid artery, B: After administration (carotid artery; 0.05 mg/Kg i.v.): 22.7 mL/min
- Blood flow volume in carotid artery, C: Increase degree (carotid artery; 0.05 mg/Kg i.v.): 8.1 mL/min
- Blood flow volume in carotid artery, D: Increase rate (carotid artery; 0.05 mg/Kg i.v.): 53.7%
- Blood flow volume in carotid artery, A: Before administration (carotid artery; 0.1 mg/Kg i.v.): 15.4 mL/min
- Blood flow volume in carotid artery, B: After administration (carotid artery; 0.1 mg/Kg i.v.): 26.9 mL/min
- Blood flow volume in carotid artery, C: Increase degree (carotid artery; 0.1 mg/Kg i.v.): 11.5 mL/min
- Blood flow volume in carotid artery, D: Increase rate (carotid artery; 0.1 mg/Kg i.v.): 74.2%
- Blood flow volume in carotid artery, A: Before administration (carotid artery; 0.5 mg/Kg i.v.): 17.3 mL/min
- Blood flow volume in carotid artery, B: After administration (carotid artery; 0.5 mg/Kg i.v.): 35.1 mL/min
- Blood flow volume in carotid artery, C: Increase degree (carotid artery; 0.5 mg/Kg i.v.): 17.8 mL/min
- Blood flow volume in carotid artery, D: Increase rate (carotid artery; 0.5 mg/Kg i.v.): 109.7%
- inhibition at 3 mg/kg (blood platelets; 3 mg/Kg oral (Table 5), read-out: Inhibitory rate of blood platelet aggregation): 48.1%
- inhibition at 10 mg/kg (blood platelets; 10 mg/Kg oral (Table 5), read-out: Inhibitory rate of blood platelet aggregation): 100%
- inhibition at 10 mg/kg (blood platelets; 10 mg/Kg oral, 1 hour after administration, collagen 7 to 10 μg/ml, read-out: Inhibitory rate (blood platelet aggregation)): 100%
- inhibition at 30 mg/kg (blood platelets; 30 mg/Kg oral (Table 5), read-out: Inhibitory rate of blood platelet aggregation): 100%
- LD50 (in vivo): > 8000 mg/kg
- Blood pressure in femoral artery, A: Before administration (femoral artery [1]; 0.01 mg/kg i.v.): 96.0 mmHg
- Blood pressure in femoral artery, B: After administration (femoral artery [1]; 0.01 mg/kg i.v.): 92.3 mmHg
- Blood pressure in femoral artery, E: Lowering degree (femoral artery [1]; 0.01 mg/kg i.v.): 3.7 mmHg
- Blood pressure in femoral artery, F: Lowering rate (femoral artery [1]; 0.01 mg/kg i.v.): 3.8%
- Blood pressure in femoral artery, A: Before administration (femoral artery [1]; 0.05 mg/kg i.v.): 91.7 mmHg
- Blood pressure in femoral artery, B: After administration (femoral artery [1]; 0.05 mg/kg i.v.): 81.7 mmHg
- Blood pressure in femoral artery, E: Lowering degree (femoral artery [1]; 0.05 mg/kg i.v.): 10.0 mmHg
- Blood pressure in femoral artery, F: Lowering rate (femoral artery [1]; 0.05 mg/kg i.v.): 10.9%
- Blood pressure in femoral artery, A: Before administration (femoral artery [1]; 0.1 mg/kg i.v.): 90.0 mmHg
- Blood pressure in femoral artery, B: After administration (femoral artery [1]; 0.1 mg/kg i.v.): 81.7 mmHg
- Blood pressure in femoral artery, E: Lowering degree (femoral artery [1]; 0.1 mg/kg i.v.): 8.3 mmHg
- Blood pressure in femoral artery, F: Lowering rate (femoral artery [1]; 0.1 mg/kg i.v.): 8.8%
- Blood pressure in femoral artery, A: Before administration (femoral artery [1]; 0.5 mg/kg i.v.): 86.7 mmHg
- Blood pressure in femoral artery, B: After administration (femoral artery [1]; 0.5 mg/kg i.v.): 63.2 mmHg
- Blood pressure in femoral artery, E: Lowering degree (femoral artery [1]; 0.5 mg/kg i.v.): 23.5 mmHg
- Blood pressure in femoral artery, F: Lowering rate (femoral artery [1]; 0.5 mg/kg i.v.): 30.1%
- Blood flow volume in femoral artery, A: Before administration (femoral artery [2]; 0.01 mg/Kg i.v.): 19.0 mL/min
- Blood flow volume in femoral artery, B: After administration (femoral artery [2]; 0.01 mg/Kg i.v.): 22.1 mL/min
- Blood flow volume in femoral artery, C: Increase degree (femoral artery [2]; 0.01 mg/kg i.v.): 3.1 mL/min
- Blood flow volume in femoral artery, D: Increase rate (femoral artery [2]; 0.01 mg/kg i.v.): 9.9%
- Blood flow volume in femoral artery, A: Before administration (femoral artery [2]; 0.05 mg/Kg i.v.): 18.5 mL/min
- Blood flow volume in femoral artery, B: After administration (femoral artery [2]; 0.05 mg/Kg i.v.): 24.3 mL/min
- Blood flow volume in femoral artery, C: Increase degree (femoral artery [2]; 0.05 mg/kg i.v.): 5.8 mL/min
- Blood flow volume in femoral artery, D: Increase rate (femoral artery [2]; 0.05 mg/kg i.v.): 28.2%
- Blood flow volume in femoral artery, A: Before administration (femoral artery [2]; 0.1 mg/Kg i.v.): 18.5 mL/min
- Blood flow volume in femoral artery, B: After administration (femoral artery [2]; 0.1 mg/Kg i.v.): 27.8 mL/min
- Blood flow volume in femoral artery, C: Increase degree (femoral artery [2]; 0.1 mg/kg i.v.): 9.3 mL/min
- Blood flow volume in femoral artery, D: Increase rate (femoral artery [2]; 0.1 mg/kg i.v.): 65.2%
- Blood flow volume in femoral artery, A: Before administration (femoral artery [2]; 0.5 mg/Kg i.v.): 19.5 mL/min
- Blood flow volume in femoral artery, B: After administration (femoral artery [2]; 0.5 mg/Kg i.v.): 28.2 mL/min
- Blood flow volume in femoral artery, C: Increase degree (femoral artery [2]; 0.5 mg/kg i.v.): 8.7 mL/min
- Blood flow volume in femoral artery, D: Increase rate (femoral artery [2]; 0.5 mg/kg i.v.): 55.3%
- Survival time of dead mice (mice; 30 mg/Kg oral): 101 ± 11 s
- Mortality (mice; 30 mg/Kg oral): 75%
- Survival time of dead mice (mice; 100 mg/Kg oral): 108 ± 11 s
- Mortality (mice; 100 mg/Kg oral): 75%
- Mortality (mice; 300 mg/Kg oral): 0%
